Data: patent US12595253B2, “Benzamides of pyrazolylamino-pyrimidinyl derivatives, and compositions and methods thereof” (LYNK PHARMACEUTICALS CO. LTD., priority 2019, dated 2026)

What was measured:
JAK1 = target: T1, JAK1 (Homo sapiens, UniProt P23458); experiment: JAK1 microfluidic kinase assay (Caliper EZ Reader II, FAM labeled peptide substrate); format: biochemical; settings: IC50 JAK1 (5 nM) (1 m MATP), JAK1 5 nM, 1 mM ATP
T1 construct: purchased Carna Biosciences
How it was run: (§1)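 Microfluidic mobility-shift kinase assay in 50 mM HEPES, 0.01% Brij35, 10 mM MgCl2, 2 mM DTT. IC50 values come from percent-inhibition curves normalised to uninhibited and enzyme-free controls.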

[1] = Liver microsomes study, Phase I stability (HLM); format: in vitro ADME, human; settings: pH 7.4
Procedure: (§2) Commercially available liver microsomes (MsLM vendor: XENOTECH; RLM, DLM, MkL, HLM vendor: Corning) were used for study the Phase I stability of test articles. […] The reaction was initiated by addition of 80 μL of the NADPH regenerating system to 320 µL of each incubation mixture per time point. […] The 0-minute samples were prepared by addition of an 80 μL aliquot of each incubation mixture to 400 μL quench reagent to precipitate proteins. And then a 20 μL aliquot of the NADPH regenerating system was added. At 10, 30, and 90 minutes, the reaction will be stopped by the addition of cold acetonitrile solution containing tolbutamide and propanolol served as internal standard. The samples taken at all time points were centrifuged at 4000×g for 15 minutes. 80 μL of supernatant are taken into 96-well assay plates pre-added with 160 μL ultrapure water, and then analyzed by LC/MS/MS(Shimadzu LC30AD & API4000/API5000)). Concentrations of test articles, control compounds in the samples were determined by using LC/MS/MS) method. Plotting of the chromatograms and peak area integrations are carried out by Analyst (AB Sciex).
(§3) In the determination of the in vitro elimination constant, ke, of the control compounds, the analyte/internal standard peak area ratios will be converted to percentage remaining (% Remaining) with the following equation: […]
(§4) The slope was measured by the natural logarithm of the percentage of the residual compound and time, T½ and CLint were calculated according to the following formulas, V/M was equal to the 1/concentration of protein.

[2] = Liver microsomes study, Phase I stability (RLM); format: in vitro ADME, rat; settings: pH 7.4
Procedure: as §2, §3, §4

JAK2 = target: T2, JAK2 (Homo sapiens, UniProt O60674); experiment: JAK2 microfluidic kinase assay (Caliper EZ Reader II, FAM labeled peptide substrate); format: biochemical; settings: IC50 JAK2 ([…]) (1 mM ATP), 1 mM ATP
T2 construct: purchased Carna Biosciences
How it was run: as §1

JAK2V617F = target: T3, JAK2V617F (Homo sapiens, UniProt O60674, V617F); experiment: JAK2V617F microfluidic kinase assay (Caliper EZ Reader II, FAM labeled peptide substrate); format: biochemical; settings: JAK2V617F 2.5 nM, 1 mM ATP
T3 construct: purchased Carna Biosciences
How it was run: as §1

TYK2 = target: T4, TYK2 (Homo sapiens, UniProt P29597); experiment: TYK2 microfluidic kinase assay (Caliper EZ Reader II, FAM labeled peptide substrate); format: biochemical; settings: IC50 TYK2 ([…]) (1 mM ATP), TYK2 […], 1 mM ATP
T4 construct: purchased Carna Biosciences
How it was run: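 Assay run at ~10% substrate conversion in 50 mM HEPES pH buffer with Brij35, MgCl2 and DTT; compounds tested up to 5 μM in 3-fold dilutions at 1% DMSO. JAK1 reacted 120 min, JAK2 20 min, JAK2V617F 30 min, TYK2 10 min before an EDTA stop.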

[3] = human liver microsomes 0.5 mg/mL, 1 μM test article, read-out: HLM Clint
[4] = rat liver microsomes 0.5 mg/mL, 1 μM test article, read-out: RLM Clint

T1 sequence (P23458 whole entry): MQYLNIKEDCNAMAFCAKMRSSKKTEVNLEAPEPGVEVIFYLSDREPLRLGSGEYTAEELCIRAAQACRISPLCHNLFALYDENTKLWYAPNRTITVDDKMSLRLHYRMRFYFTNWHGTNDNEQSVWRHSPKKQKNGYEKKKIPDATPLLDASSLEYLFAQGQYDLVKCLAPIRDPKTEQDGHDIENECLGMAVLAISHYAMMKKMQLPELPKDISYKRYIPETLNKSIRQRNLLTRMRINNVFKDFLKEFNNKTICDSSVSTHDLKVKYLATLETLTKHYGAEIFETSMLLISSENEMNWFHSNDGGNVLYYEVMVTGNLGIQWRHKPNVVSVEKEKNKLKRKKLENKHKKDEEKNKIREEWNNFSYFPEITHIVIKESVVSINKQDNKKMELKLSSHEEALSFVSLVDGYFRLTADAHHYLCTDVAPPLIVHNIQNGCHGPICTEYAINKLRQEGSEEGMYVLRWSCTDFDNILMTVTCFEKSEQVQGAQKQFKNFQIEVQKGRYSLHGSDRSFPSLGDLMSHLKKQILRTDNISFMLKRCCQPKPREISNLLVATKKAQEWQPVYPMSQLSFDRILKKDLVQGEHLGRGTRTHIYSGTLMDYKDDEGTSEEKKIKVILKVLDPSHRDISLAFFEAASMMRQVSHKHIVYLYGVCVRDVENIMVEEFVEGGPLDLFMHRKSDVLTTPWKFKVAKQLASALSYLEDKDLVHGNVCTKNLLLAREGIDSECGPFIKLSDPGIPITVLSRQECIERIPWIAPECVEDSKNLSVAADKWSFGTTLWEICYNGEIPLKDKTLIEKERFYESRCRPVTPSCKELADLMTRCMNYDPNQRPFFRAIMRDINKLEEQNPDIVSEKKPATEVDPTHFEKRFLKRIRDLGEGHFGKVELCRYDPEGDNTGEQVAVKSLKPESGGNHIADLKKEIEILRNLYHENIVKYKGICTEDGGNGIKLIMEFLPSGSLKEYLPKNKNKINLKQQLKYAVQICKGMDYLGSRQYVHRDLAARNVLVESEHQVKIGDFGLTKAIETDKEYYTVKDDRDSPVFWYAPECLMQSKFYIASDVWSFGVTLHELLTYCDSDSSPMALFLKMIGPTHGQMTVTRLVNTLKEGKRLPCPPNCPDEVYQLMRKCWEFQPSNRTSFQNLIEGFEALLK
T3 sequence (O60674 whole entry V617F): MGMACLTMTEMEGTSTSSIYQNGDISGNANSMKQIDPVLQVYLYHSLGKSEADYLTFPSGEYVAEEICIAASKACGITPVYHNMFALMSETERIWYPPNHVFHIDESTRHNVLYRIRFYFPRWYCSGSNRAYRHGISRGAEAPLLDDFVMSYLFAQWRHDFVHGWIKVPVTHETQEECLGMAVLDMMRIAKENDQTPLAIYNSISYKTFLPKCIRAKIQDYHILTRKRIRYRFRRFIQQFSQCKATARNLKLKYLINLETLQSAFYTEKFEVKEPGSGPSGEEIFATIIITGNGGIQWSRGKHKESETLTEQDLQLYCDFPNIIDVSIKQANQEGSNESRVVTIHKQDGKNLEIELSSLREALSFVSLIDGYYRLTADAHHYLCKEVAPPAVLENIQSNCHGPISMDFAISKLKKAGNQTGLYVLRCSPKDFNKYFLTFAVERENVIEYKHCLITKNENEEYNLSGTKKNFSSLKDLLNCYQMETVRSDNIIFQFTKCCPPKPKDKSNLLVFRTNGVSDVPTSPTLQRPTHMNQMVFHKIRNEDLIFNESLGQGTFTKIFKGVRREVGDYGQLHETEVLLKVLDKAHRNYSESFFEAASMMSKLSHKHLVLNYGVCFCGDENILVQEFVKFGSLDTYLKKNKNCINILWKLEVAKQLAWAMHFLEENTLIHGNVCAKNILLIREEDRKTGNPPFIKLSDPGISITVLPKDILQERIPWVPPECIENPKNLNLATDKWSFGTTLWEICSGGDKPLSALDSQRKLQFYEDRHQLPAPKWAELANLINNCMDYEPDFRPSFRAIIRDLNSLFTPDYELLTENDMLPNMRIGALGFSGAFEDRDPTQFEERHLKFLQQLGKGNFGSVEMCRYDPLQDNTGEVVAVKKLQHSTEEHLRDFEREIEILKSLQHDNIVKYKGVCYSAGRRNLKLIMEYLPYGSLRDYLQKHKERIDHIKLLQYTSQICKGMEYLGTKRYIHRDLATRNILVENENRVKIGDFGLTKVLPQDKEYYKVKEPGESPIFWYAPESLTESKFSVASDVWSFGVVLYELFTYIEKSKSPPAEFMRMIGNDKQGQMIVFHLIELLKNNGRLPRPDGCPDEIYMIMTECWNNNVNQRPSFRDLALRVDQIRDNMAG
T2 sequence (O60674 whole entry): as the sequence (O60674 whole entry V617F) above, with F617V counted along it
T4 sequence (P29597 whole entry): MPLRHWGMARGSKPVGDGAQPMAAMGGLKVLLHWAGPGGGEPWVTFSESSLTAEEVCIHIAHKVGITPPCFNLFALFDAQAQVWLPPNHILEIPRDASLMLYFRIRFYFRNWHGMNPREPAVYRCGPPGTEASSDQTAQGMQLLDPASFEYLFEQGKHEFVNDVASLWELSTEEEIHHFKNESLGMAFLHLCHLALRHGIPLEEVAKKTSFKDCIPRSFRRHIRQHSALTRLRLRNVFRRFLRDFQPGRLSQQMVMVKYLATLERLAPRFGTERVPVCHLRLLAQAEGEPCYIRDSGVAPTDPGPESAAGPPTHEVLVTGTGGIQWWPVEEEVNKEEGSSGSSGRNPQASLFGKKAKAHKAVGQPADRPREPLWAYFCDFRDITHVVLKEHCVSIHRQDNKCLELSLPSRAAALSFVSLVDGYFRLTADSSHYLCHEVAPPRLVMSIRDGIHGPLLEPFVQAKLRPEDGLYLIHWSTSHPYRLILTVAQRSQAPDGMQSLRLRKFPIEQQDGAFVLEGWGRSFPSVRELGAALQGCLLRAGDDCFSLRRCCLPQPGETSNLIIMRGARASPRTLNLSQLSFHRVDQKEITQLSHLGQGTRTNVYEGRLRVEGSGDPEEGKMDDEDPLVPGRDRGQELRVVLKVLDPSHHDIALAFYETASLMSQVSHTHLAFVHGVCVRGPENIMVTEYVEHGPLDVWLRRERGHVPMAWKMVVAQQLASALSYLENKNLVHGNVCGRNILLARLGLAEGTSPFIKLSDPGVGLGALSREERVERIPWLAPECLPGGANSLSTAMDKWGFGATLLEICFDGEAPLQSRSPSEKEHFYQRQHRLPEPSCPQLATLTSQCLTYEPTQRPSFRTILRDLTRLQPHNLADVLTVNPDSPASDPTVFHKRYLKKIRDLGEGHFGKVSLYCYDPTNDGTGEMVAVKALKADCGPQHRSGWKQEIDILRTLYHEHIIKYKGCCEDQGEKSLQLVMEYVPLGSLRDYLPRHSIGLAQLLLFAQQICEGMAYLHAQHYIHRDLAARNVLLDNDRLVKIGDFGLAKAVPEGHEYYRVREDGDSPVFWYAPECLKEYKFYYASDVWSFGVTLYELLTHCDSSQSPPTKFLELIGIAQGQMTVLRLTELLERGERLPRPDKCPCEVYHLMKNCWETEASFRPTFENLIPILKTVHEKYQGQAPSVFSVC

Structure (SMILES)	IC50 (JAK1) [µM]	microsomal CLint at 1 μM [1, 3] [µL/min/mg]	microsomal CLint at 1 μM [2, 4] [µL/min/mg]	IC50 (JAK2) [µM]	IC50 (JAK2V617F) [µM]	IC50 (TYK2) [µM]	microsomal CLint at 1 μM ([1]; human, microsomes) [µL/min/mg]	microsomal CLint at 1 μM ([2]; rat, microsomes) [µL/min/mg]
Cc1cnc(Nc2cnn(C3CCN(C(=O)C4(F)CC4)CC3)c2)nc1-c1ccc(C(=O)NCC#N)cc1 [Example 152, N-(cyanomethyl)-4-(2-((1-(1-(1-fluorocyclopropanecarbonyl)piperidin-4-yl)-1H-pyrazol-4-yl)amino)-5-methylpyrimidin-4-yl)benzamide]	0.0149	96	85.9	< 0.00025	0.00067	–	–	–
Cc1cnc(Nc2cnn(C3C[C@H]4CC[C@@H](C3)O4)c2)nc1-c1ccc(C(=O)N[C@@H](C)C#N)cc1 (stereo partly drawn) [Example 70, 4-(2-((1-((1R,5S)-8-oxabicyclo[3.2.1]octan-3-yl)-1H-pyrazol-4-yl)amino)-5-methylpyrimidin-4-yl)-N—((S)-1-cyanoethyl)benzamide]	0.0124	42.9	32.5	–	0.00722	–	–	–
Cc1cnc(Nc2cnn([C@H]3CC[C@H](C#N)CC3)c2)nc1-c1ccc(C(=O)N[C@@H](C)C#N)cc1 [Example 154, 4-(2-((1-(Trans-4-cyanocyclohexyl)-1H-pyrazol-4-yl)amino)-5-methylpyrimidin-4-yl)-N—((S)-1-cyanoethyl)benzamide]	0.012	14.7	69	–	0.0045	–	–	–
COCCn1cc(Nc2ncc(Cl)c(-c3ccc(C(=O)N[C@@H](C)C#N)cc3)n2)cn1 [Example 177, (S)-4-(5-chloro-2-((1-(2-methoxyethyl)-1H-pyrazol-4-yl)amino)pyrimidin-4-yl)-N-(1-cyanoethyl)benzamide]	0.0135	38.7	–	0.00274	0.0439	–	–	–
Cc1cnc(Nc2cnn(C3CCN(C(=O)C(C)(C)O)CC3)c2)nc1-c1ccc(C(=O)NCC#N)cc1 [Example 51, N-(cyanomethyl)-4-(2-((1-(1-(2-hydroxy-2-methylpropanoyl)piperidin-4-yl)-1H-pyrazol-4-yl)amino)-5-methylpyrimidin-4-yl)benzamide]	0.0087	33.9	17.1	–	0.00051	–	–	–
Cc1cnc(Nc2cnn(C3CCOCC3)c2)nc1-c1ccc(C(=O)N[C@@H](C)C#N)cc1 [Example 144, (S)—N-(1-cyanoethyl)-4-(5-methyl-2-((1-(tetrahydro-2H-pyran-4-yl)-1H-pyrazol-4-yl)amino)pyrimidin-4-yl)benzamide]	0.0139	19.4	38.6	–	0.0301	–	–	–
C[C@@H](C#N)NC(=O)c1ccc(-c2nc(Nc3cnn(C4CCN(C(=O)C(C)(C)C)CC4)c3)ncc2Cl)cc1 [Example 99, (S)-4-(5-Chloro-2-((1-(1-pivaloylpiperidin-4-yl)-1H-pyrazol-4-yl)amino)pyrimidin-4-yl)-N-(1-cyanoethyl)benzamide]	0.0236	113	–	–	0.00132	–	–	–
Cc1cnc(Nc2cnn(C3C[C@@H](C)O[C@@H](C)C3)c2)nc1-c1ccc(C(=O)NCC#N)cc1 (stereo partly shown) [Example 68]	0.0304	141	228	–	0.00907	–	–	–
N#CC1(CNC(=O)c2ccc(-c3nc(Nc4cnn(C5CC5)c4)ncc3Cl)cc2)CC1 [Example 60, 4-(5-Chloro-2-((1-cyclopropyl-1H-pyrazol-4-yl)amino)pyrimidin-4-yl)-N-((1-cyanocyclopropyl)methyl)benzamide]	0.0153	24.6	40.8	0.0306	–	–	–	–
Cc1cnc(Nc2cnn(C3CCN(C)CC3)c2)nc1-c1ccc(C(=O)N[C@H](C)C#N)cc1 [Example 62, (R)—N-(1-cyanoethyl)-4-(5-methyl-2-((1-(1-methylpiperidin-4-yl)-1H-pyrazol-4-yl)amino)pyrimidin-4-yl)benzamide]	0.0231	10.6	–	0.071	–	0.215	–	–
CC(C)(C)C(=O)N1CCC(n2cc(Nc3ncc(Cl)c(-c4ccc(C(=O)NCC#N)cc4)n3)cn2)CC1 [Example 98, 4-(5-Chloro-2-((1-(1-pivaloylpiperidin-4-yl)-1H-pyrazol-4-yl)amino)pyrimidin-4-yl)-N-(cyanomethyl)benzamide]	0.0178	147	–	–	0.0013	–	–	–
N#CCNC(=O)c1ccc(-c2nc(Nc3cnn(C4CC4)c3)ncc2Cl)cn1 [Example 120, 5-(5-Chloro-2-((1-cyclopropyl-1H-pyrazol-4-yl)amino)pyrimidin-4-yl)-N-(cyanomethyl)picolinamide]	0.0398	16.2	47.5	–	0.131	–	–	–
Cc1cnc(Nc2cnn(C3CCN(C(=O)C45CC(C4)C5)CC3)c2)nc1-c1ccc(C(=O)NCC#N)cc1 [Example 114, 4-(2-((1-(1-(Bicyclo[1.1.1]pentane-1-carbonyl)piperidin-4-yl)-1H-pyrazol-4-yl)amino)-5-methylpyrimidin-4-yl)-N-(cyanomethyl)benzamide]	0.0125	204	93.6	–	–	–	–	–
Cc1cnc(Nc2cnn(C3CC3)c2)nc1-c1ccc(C(=O)NCC#N)nc1 [Example 83, N-(cyanomethyl)-5-(2-((1-cyclopropyl-1H-pyrazol-4-yl)amino)-5-methylpyrimidin-4-yl)picolinamide]	0.02	–	26.1	0.0309	0.0678	0.0452	–	–
Cc1cnc(Nc2cnn(C3CCN(C(=O)C4CC4)CC3)c2)nc1-c1ccc(C(=O)NCC#N)nc1 [Example 150, N-(cyanomethyl)-5-(2-((1-(1-(cyclopropanecarbonyl)piperidin-4-yl)-1H-pyrazol-4-yl)amino)-5-methylpyrimidin-4-yl)picolinamide]	0.0235	56.4	80.8	–	0.00419	–	–	–
C[C@@H](C#N)NC(=O)c1ccc(-c2nc(Nc3cnn(C4CC4)c3)ncc2C(F)F)cc1F [Example 138, (S)—N-(1-cyanoethyl)-4-(2-((1-cyclopropyl-1H-pyrazol-4-yl)amino)-5-(difluoromethyl)pyrimidin-4-yl)-2-fluorobenzamide]	0.432	10.7	8.5	0.688	–	–	–	–
Cc1cnc(Nc2cnn(C3CCOCC3)c2)nc1-c1ccc(C(=O)N[C@@H](C)C(F)(F)F)cc1 [Example 75, (S)-4-(5-Methyl-2-((1-(tetrahydro-2H-pyran-4-yl)-1H-pyrazol-4-yl)amino)pyrimidin-4-yl)-N-(1,1,1-trifluoropropan-2-yl)benzamide]	0.0129	22.6	–	–	0.00891	–	–	–
N#CC1(CNC(=O)c2ccc(-c3nc(Nc4cnn(C5CCOCC5)c4)ncc3Cl)cc2)CC1 [Example 78, 4-(5-Chloro-2-((1-(tetrahydro-2H-pyran-4-yl)-1H-pyrazol-4-yl)amino)pyrimidin-4-yl)-N-((1-cyanocyclopropyl)methyl)benzamide]	0.0378	30	47.2	–	0.0453	–	–	–
CN1CCC(n2cc(Nc3ncc(Cl)c(-c4ccc(C(=O)NCC#N)cc4)n3)cn2)CC1 [Example 44, 4-(5-Chloro-2-((1-(1-methylpiperidin-4-yl)-1H-pyrazol-4-yl)amino)pyrimidin-4-yl)-N-(cyanomethyl)benzamide]	0.00655	19.5	–	0.00054	0.00511	0.0787	–	–
Cc1cnc(Nc2cnn(C3CC4CCC(C3)N4CC(F)(F)F)c2)nc1-c1ccc(C(=O)NCC#N)cc1 [Example 134, N-(cyanomethyl)-4-(5-methyl-2-((1-((1R,3s,5S)-8-(2,2,2-trifluoroethyl)-8-azabicyclo[3.2.1]octan-3-yl)-1H-pyrazol-4-yl)amino)pyrimidin-4-yl)benzamide]	0.0224	–	–	0.0107	–	–	1190	1950
